Data as given in article PMC11242853, “The Antimicrobial Activity of Human Defensins at Physiological Non-Permeabilizing Concentrations Is Caused by the Inhibition of the Plasma Membrane H^+-ATPases” (International Journal of Molecular Sciences, 2024).
Where no end group is shown, it is not given here.

Columns and labels:
C. albicans cells [1] = experiment: Oxygen consumption measurement (polarographic), C. albicans; format: cell-based, Candida albicans; conditions: after 30 min; defensins 2 x NPIC, human lactoferrin 20 μM, piericidin A 32 µM; preincubated 15 min at 37 °C; untreated cells 94% ± 2%; means ± SD, three experiments
Procedure: Oxygen consumption by C. albicans and P. aeruginosa cells was determined by polarographically using a biological oxygen monitor (dual digital-model 20; Rank Brothers Ltd., Cambridge, UK) at 25 °C. The apparatus consisted of a twin water-jacketed closed sample chamber, which enabled a control experiment to be conducted concurrently. The cells were grown to mid-log phase in SDB (C. albicans) or TSB (P. aeruginosa), washed twice in Tris buffer, and resuspended in the same buffer. Cell suspensions (approximately 10^7 cells/mL) were preincubated with defensins (2 x NPIC), human lactoferrin (20 μM), or piericidin A (32 μM) for 15 min at 37 °C. Oxygen consumption was recorded at 5-min intervals for a period of 30 min. Three independent experiments were performed, and the data are means ± SD.

C. albicans cells [2] = experiment: Total cellular ATP (BacTiter-Glo); format: cell-based, Candida albicans; conditions: for ATP increment: Table 2, no reference given; for increase in ATP levels compared to the untreated control: defensins at NPIC, human lactoferrin 5 μM, BM2 peptide 0.25 μM, 10^6 cells/mL, BacTiter-Glo luminescence
Procedure: Total ATP was measured using the BacTiter-Glo^TM Microbial Cell Viability Assay (Promega Co., Madison, WI, USA) according to the manufacturer’s instructions. […] Aliquots (100 µL) were incubated (90 min at 37 °C) with human defensins (NPICs). Human lactoferrin (5 μM) or BM2 peptide (0.25 μM) was used as positive controls. One hundred microliters of the incubation mixture was transferred to an opaque 96-well plate, mixed with an equal volume of BacTiter-Glo^TM reagent, and incubated for 15 min in the dark. The reagent uses a thermostable luciferase to generate luminescence in an ATP-dependent manner. The emitted luminescence was detected using a Varioskan Flash multimode reader (Thermo Scientific, Waltham, MA, USA) with a 10 s shaking and 1 s integration time. A calibration curve was generated for each experiment with ATP standards ranging from 1 to 1000 nM. All assays were performed at least three times in duplicate.

[3] = test system: Pseudomonas aeruginosa PAO1; experiment: Antimicrobial spread-plate (CFU) killing assay, P. aeruginosa; format: cell-based; conditions: for non-permeabilizing inhibitory concentration (NPIC), P. aeruginosa: antimicrobial concentration (≤10% viable cells) that permeabilized ≤10% of cells, 10^6 cells/mL, Tris buffer pH 7.4, 90 min at 37 °C, from Figure 1 data, duplicates of three experiments
Procedure: (§1) To determine whether the above microbicidal concentrations exert a permeabilizing effect on fungal and bacterial membranes, the influx of the fluorescent nucleic acid-binding dye propidium iodide (PI) in cells incubated with the peptides was assessed. In cells, dye uptake reflects membrane permeabilization, as PI itself cannot permeate through an intact phospholipid bilayer. […] To select an antimicrobial but non-permeabilizing concentration of each peptide for further assays, we defined as a non-permeabilizing inhibitory concentration (NPIC) the antimicrobial inhibitory concentration (≤10% viable cells) that permeabilized ≤ 10% of cells incubated (90 min at 37 °C) in buffer solution.
(§2) Microbial susceptibility to the peptides was determined in a spread-plate assay as described previously. Briefly, cell suspensions (10^6 cells/mL) in Tris buffer (10 mM Tris-HCl, pH 7.4) were incubated for 90 min at 37 °C with 2-fold serial peptide dilutions. Peptide concentrations ranged from 0 to 2 μM. After incubation, the number of viable cells was determined by plating aliquots (100 μL) in duplicate on plates (SDA for C. albicans, TSA for P. aeruginosa, and M17G agarified medium for L. lactis) that had been dried for 30 min at room temperature in a laminar flow hood. Plates were incubated for 24–48 h at 30 °C (C. albicans and L. lactis) or 24 h at 37 °C (P. aeruginosa). Dilutions yielding 50–200 colonies were counted. Cell viability values, expressed as colony-forming units (CFUs), were calculated relative to the incubation without added peptides and represent the means ± standard deviation (SD) from duplicates of three independent experiments. For inhibition assays, unless otherwise noted, cell suspensions were preincubated (15 min at 37 °C) with the appropriate inhibitor prior to the addition of peptides, but the inhibitor was present throughout the incubation period with the peptide (90 min at 37 °C). Other specific experimental conditions are described as appropriate. In some experiments, the concentrations of human lactoferrin against C. albicans (5 μM), P. aeruginosa (1 μM), and L. lactis (0.065 μM) were used in the control assays. In various viability assays, BM2 peptide (0.25 μM), CCCP (50 μM), colistin (4 μg/mL), nystatin (50 μM), oligomycin A (16 μg/mL), piericidin A (32 μM), and TEA (10 mM) were used.

[4] = test system: Candida albicans ATCC 10231; experiment: Antimicrobial spread-plate (CFU) killing assay, C. albicans; format: cell-based; conditions: for effect of high extracellular K+ on candidacidal activity: 50 mM KCl, defensins at NPIC, hLf 5 μM, BM2 0.25 μM, nystatin 50 μM; for non-permeabilizing inhibitory concentration (NPIC), C. albicans: antimicrobial concentration (≤10% viable cells) that permeabilized ≤10% of cells, 10^6 cells/mL, Tris buffer pH 7.4, 90 min at 37 °C, from Figure 1 data, duplicates of three experiments; for effect of piericidin A on candidacidal activity: cells preincubated 15 min at 37 °C with 32 µM piericidin A, then peptides (NPIC) 90 min; for effect of oligomycin A on candidacidal activity: preincubated 15 min at 37 °C with 16 μg/mL oligomycin A, peptides at NPIC; for candidacidal activity (comparison among defensins): 0–2 μM, 90 min at 37 °C, Tris buffer
Procedure: as §1, §2

[5] = test system: Lactococcus lactis subsp. lactis (strain IL1403); experiment: Antimicrobial spread-plate (CFU) killing assay, fermenting L. lactis; format: cell-based; conditions: fermentative conditions; range tested 0.062 to 2 µM; Tris buffer, 90 min at 37 °C
Procedure: as §2, with “In some experiments, the concentrations of human lactoferrin against C. albicans (5 μM), P. aeruginosa (1 μM), and L. lactis (0.065 μM) were used in the control assays. In various viability assays, BM2 peptide (0.25 μM), CCCP (50 μM), colistin (4 μg/mL), nystatin (50 μM), oligomycin A (16 μg/mL), piericidin A (32 μM), and TEA (10 mM) were used.” left out

P. aeruginosa cells = experiment: Permeability assay (propidium iodide uptake, flow cytometry), P. aeruginosa; format: cell-based, Pseudomonas aeruginosa; conditions: 90 min at 37 °C, Tris buffer, PI 1 µg/mL
Procedure: as §1

Substance	oxygen consumption percentage of C. albicans (C. albicans cells [1])	ATP increment (C. albicans cells [2])	increase in ATP levels compared to the untreated control (C. albicans cells [2])	non-permeabilizing inhibitory concentration (NPIC), P. aeruginosa [3] [µM]	effect of high extracellular K+ on candidacidal activity [4]	Cell death inhibitors, extracellular: Tok1p inhibitors (TEA) ([4]; Table 2, no reference given)	non-permeabilizing inhibitory concentration (NPIC), C. albicans [4] [µM]	effect of piericidin A on candidacidal activity [4]	effect of oligomycin A on candidacidal activity [4]	pseudomonacidal activity (comparison among defensins) ([3]; 0–2 μM, 90 min at 37 °C, Tris buffer)	candidacidal activity (comparison among defensins) [4]	calculated NPIC against fermenting L. lactis [5] [µM]	effect of piericidin A on bactericidal activity, P. aeruginosa ([3]; cells pretreated with 32 µM piericidin A, defensins at NPIC)	effect of CCCP on bactericidal activity, P. aeruginosa ([3]; preincubated 15 min at 37 °C with 50 µM CCCP at pH 7.4, peptides at NPIC)	Cell death inhibitors, intracellular: Oligomycin A ([4]; Table 2, no reference given)	Cell death inhibitors, intracellular: Piericidin A ([4]; Table 2, no reference given, tested on C. albicans and P. aeruginosa in this study)	concentration showing permeabilizing activity (increase in intracellular PI), P. aeruginosa (P. aeruginosa cells) [µM]
HNP-4: human α-defensin, UniProtKB P12838, 33 amino acids; purchased from PeptaNova (VCSCRLVFCRRTELRVGNCLIGGVSFTYCCTRV; ends and bridges not checked; cysteine pairing not given here; UniProt P12838 64-96, looked up)	81% ± 3%	Yes	~ 8 fold	0.25	significantly protected	Yes [69] ND Yes ND ND ND ND ND ND	0.25	significantly less susceptible	significantly (p < 0.001) less susceptible								
hBD-3: human β-defensin, UniProtKB Q5U7J2, 45 amino acids; purchased from PeptaNova (GIINTLQKYYCRVRGGRCAVLSCLPKEEQIGKCSTRGRKCCRRKK; Beta-defensin 103; UniProt P81534 23-67, looked up)	79% ± 4%	Yes	~ 6 fold	0.25	significantly protected	Yes	0.125	significantly less susceptible	significantly (p < 0.001) less susceptible	most potent pseudomonacidal activity	highest candidacidal activity						
HNP-1: human α-defensin, UniProtKB P59665, 30 amino acids, three disulfide bonds; purchased from PeptaNova	87% ± 4%		~ 7 fold	0.5	significantly protected	Yes	0.25	significantly less susceptible	significantly (p < 0.001) less susceptible		highest candidacidal activity	0.125	significantly (p < 0.001) protected	significant reduction	Yes	Yes	≥ 0.5
